What was measured:
[1] = Metabolism of Compound 1 in vitro and in vivo
[2] = MDCK-Wild Type permeability, 96 well + 0.1% BSA; assay type: in vitro ADME; conditions: dog, MDCK, A-B direction, read-out: MDCK-Wild Type-Permeability 96 well + 0.1% BSA Papp compound (A-B)
Rat hepatocytes = test: Hepatocyte clearance, rat hepatocytes; assay type: in vitro ADME; conditions: percent unchanged
F508del-CFTR = target: T1, F508del-CFTR (Homo sapiens, UniProt P13569, DEL508-508); test: Membrane potential optical (FLIPR) assay for F508del-CFTR modulators in NIH 3T3 cells; assay type: cell-based; conditions: NIH 3T3 cells expressing F508del; assay A1; read-out: CFTRdF508 Cor 3T3 FLIPR 384 CFTRdF508 MP 3T3 770 EC50
T1 construct: expressed in transfected cells
How it was run: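 NIH3T3 mouse fibroblasts stably expressing F508del, seeded on matrigel and cultured 18-24 h at 37 °C; for correction, cells were cultured with or without compound for 18-24 h. Cells were loaded with voltage-sensing dye, then compound was added in one step with a chloride gradient (chloride replaced by gluconate). Membrane potential was read by fluorescence.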

human PXR = target: T2, human PXR (Homo sapiens, UniProt O75469); test: PXR assay: PXR mediated CYP3A4 induction in DPX-2 cell line; assay type: cell-based; conditions: DPX-2 cells
T2 construct: host or cells: DPX-2 cell line (derived from HepG2)
T2 sequence (O75469 1-434): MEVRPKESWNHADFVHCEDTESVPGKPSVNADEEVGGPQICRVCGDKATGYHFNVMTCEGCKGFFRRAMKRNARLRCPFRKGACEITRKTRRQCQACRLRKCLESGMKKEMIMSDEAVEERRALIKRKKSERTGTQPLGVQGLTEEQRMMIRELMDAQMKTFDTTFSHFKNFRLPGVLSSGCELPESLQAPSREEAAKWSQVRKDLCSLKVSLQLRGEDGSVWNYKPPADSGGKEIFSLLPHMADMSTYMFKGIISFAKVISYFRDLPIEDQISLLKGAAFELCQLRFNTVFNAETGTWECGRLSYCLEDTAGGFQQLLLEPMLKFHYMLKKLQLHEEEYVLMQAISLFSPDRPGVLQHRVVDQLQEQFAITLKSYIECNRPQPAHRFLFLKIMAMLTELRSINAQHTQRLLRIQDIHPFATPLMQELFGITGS
How it was run: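 HepG2-derived DPX-2 cells stably carrying human PXR and a CYP3A4 promoter/enhancer–luciferase reporter; 11 doses from 0.1 to 60 μM for 48 h, rifampicin as positive control. Viability read by fluorescence, then luciferase luminescence; max fold induction over vehicle and EC50 reported.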

Rat IV and PO PK studies = assay type: in vivo, male Sprague-Dawley rats; conditions: for RAT PLASMA-RAW IV-bolus CL_drg: nominal 3.0 mg/kg; for RAT PLASMA-RAW PO % F_drg / AUC(0-inf): nominal 3 mg/kg, PO; for AUC(0-inf): male, Sprague-Dawley, plasma, read-out: RAT PLASMA-RAW PO AUC (0-inf)_drg
Description: C. Experimental Protocol for Rat IV and PO PK Studies
The tested compound was administered to male Sprague-Dawley rats as a single nominal intravenous dose of 3.0 mg/kg as a solution in 10% NMP, 10% solution, 15% EtOH, 35% PEG400 and 30% D5W. The tested compound was also administered to male Sprague-Dawley rats at single nominal oral dose of 3 mg/kg as a solution in 5% NMP, 30% PEG400, 10% TPGS, 5% PVP-K30 at 5 mL/kg dose volume. Analyses of plasma and dose preparations were performed using LC/MS/MS.
Plasma concentration-time profiles of the tested compound in Sprague-Dawley rats at scheduled (nominal) sampling times were analyzed by noncompartmental pharmacokinetic methods using PK function within Watson LIMS software, Version 7.4.2 (Thermo Scientific Inc, Waltham, Mass.). AUC values were calculated using the linear trapezoidal rule.

T1 sequence (P13569 with tags, fused parts or gaps DEL508-508): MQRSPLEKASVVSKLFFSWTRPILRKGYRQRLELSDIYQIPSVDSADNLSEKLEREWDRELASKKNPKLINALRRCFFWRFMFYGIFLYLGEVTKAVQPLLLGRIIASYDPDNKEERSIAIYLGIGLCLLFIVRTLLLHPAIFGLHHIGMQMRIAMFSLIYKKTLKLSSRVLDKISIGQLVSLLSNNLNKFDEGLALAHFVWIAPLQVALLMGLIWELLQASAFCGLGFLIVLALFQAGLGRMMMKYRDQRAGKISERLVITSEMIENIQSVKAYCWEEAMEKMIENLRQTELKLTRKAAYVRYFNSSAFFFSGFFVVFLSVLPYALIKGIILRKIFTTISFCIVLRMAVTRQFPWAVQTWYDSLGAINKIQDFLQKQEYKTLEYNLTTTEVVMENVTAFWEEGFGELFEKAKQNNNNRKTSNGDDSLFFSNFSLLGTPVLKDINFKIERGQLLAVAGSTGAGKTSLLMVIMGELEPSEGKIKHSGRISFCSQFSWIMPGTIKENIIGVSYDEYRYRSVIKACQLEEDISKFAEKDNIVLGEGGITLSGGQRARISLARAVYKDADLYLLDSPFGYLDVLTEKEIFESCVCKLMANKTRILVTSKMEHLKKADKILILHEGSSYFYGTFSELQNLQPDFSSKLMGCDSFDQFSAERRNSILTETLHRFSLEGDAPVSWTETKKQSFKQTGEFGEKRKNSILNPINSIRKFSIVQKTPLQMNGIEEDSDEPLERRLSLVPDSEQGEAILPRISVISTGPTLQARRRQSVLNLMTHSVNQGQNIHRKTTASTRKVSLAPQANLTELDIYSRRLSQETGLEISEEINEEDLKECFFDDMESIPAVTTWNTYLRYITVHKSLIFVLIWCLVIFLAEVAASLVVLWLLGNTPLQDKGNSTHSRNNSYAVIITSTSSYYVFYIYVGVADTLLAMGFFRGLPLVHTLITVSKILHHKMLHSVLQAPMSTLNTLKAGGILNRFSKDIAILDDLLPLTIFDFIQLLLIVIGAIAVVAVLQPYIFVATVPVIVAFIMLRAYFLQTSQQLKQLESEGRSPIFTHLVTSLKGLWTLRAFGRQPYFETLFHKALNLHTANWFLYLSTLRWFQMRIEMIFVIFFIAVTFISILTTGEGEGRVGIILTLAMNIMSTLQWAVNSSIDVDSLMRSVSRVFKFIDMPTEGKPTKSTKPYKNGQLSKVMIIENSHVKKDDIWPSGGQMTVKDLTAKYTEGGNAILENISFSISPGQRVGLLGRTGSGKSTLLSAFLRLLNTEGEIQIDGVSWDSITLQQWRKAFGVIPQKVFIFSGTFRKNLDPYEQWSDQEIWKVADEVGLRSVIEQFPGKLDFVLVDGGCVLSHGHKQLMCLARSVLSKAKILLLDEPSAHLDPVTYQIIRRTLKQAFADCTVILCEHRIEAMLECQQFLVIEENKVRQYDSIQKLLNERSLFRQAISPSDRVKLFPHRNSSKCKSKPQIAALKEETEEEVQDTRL

Compound | metabolite identity [1] | Papp A→B [2] | Hepatocyte clearance-Rat Rat hepatocytes CL pct_unchanged (Rat hepatocytes) | EC50 (F508del-CFTR) | CYP3A4 Induction-PXR human PXR internal Max % Activity (human PXR) | RAT PLASMA-RAW IV-bolus CL_drg (Rat IV and PO PK studies) | RAT PLASMA-RAW PO % F_drg (Rat IV and PO PK studies) | AUC(0-inf) (Rat IV and PO PK studies)
Cc1nn(C)cc1S(=O)(=O)N1C(=O)c2ccc(-n3ccc(OCC(C)(C)C(F)(F)F)n3)nc2N2C1[C@@H](C)CC2(C)C (stereo partly shown) [Compound 36, (75)-6-((1,3-dimethyl-1H-pyrazol-4-yl)sulfonyl)-7,9,9-trimethyl-2-(3-(3,3,3-trifluoro-2,2-dimethylpropoxy)-1H-pyrazol-1-yl)-6a,7,8,9-tetrahydropyrido[3,2-e]pyrrolo[1,2-a]pyrimidin-5(6H)-one] | metabolites of Compound 1 | – | – | – | – | – | – | –
Cc1c(S(=O)(=O)NC(=O)c2ccc(-n3ccc(OCCC4(C(F)(F)F)CC4)n3)nc2N2C[C@@H](C)CC2(C)C)cnn1C [Compound 14, N-(1,5-dimethylpyrazol-4-yl)sulfonyl-6-[3-[2-[1-(trifluoromethyl)cyclopropyl]ethoxy]pyrazol-1-yl]-2-[(4S)-2,2,4-trimethylpyrrolidin-1-yl]pyridine-3-carboxamide] | – | 2.8 ×10⁻⁶ cm/s | 50% | 280 nM | 2% | 3.9 mL/min/kg | 61% | 10500 ng·h/mL
Cc1c(S(=O)(=O)NC(=O)c2ccc(-n3ccc(OCC4(C(F)(F)F)CC4)n3)nc2N2C[C@@H](C)CC2(C)C)cnn1C [Compound 9, N-(1,5-dimethylpyrazol-4-yl)sulfonyl-6-[3-[[1-(trifluoromethyl)cyclopropyl]methoxy]pyrazol-1-yl]-2-[(4S)-2,2,4-trimethylpyrrolidin-1-yl]pyridine-3-carboxamide] | – | 6.1 ×10⁻⁶ cm/s | 30% | 420 nM | 7% | 1.7 mL/min/kg | 99% | 23400 ng·h/mL
Cc1nn(C)cc1S(=O)(=O)NC(=O)c1ccc(-n2ccc(OCC3C(C)(C)C3(C)C)n2)nc1N1C[C@@H](C)CC1(C)C [Compound 20, N-(1,3-dimethylpyrazol-4-yl)sulfonyl-6-[3-[(2,2,3,3-tetramethylcyclopropyl)methoxy]pyrazol-1-yl]-2-[(4S)-2,2,4-trimethylpyrrolidin-1-yl]pyridine-3-carboxamide] | – | 1.4 ×10⁻⁶ cm/s | 13% | 170 nM | 4% | 4.9 mL/min/kg | 21% | 3000 ng·h/mL
Cc1nn(C)cc1S(=O)(=O)NC(=O)c1ccc(-n2ccc(OCCC3(C(F)(F)F)CC3)n2)nc1N1C[C@@H](C)CC1(C)C [Compound 15, N-(1,3-dimethylpyrazol-4-yl)sulfonyl-6-[3-[2-[1-(trifluoromethyl)cyclopropyl]ethoxy]pyrazol-1-yl]-2-[(4S)-2,2,4-trimethylpyrrolidin-1-yl]pyridine-3-carboxamide] | – | 2.7 ×10⁻⁶ cm/s | 97% | 130 nM | 3% | 2.5 mL/min/kg | 66% | 16300 ng·h/mL
Cc1c(S(=O)(=O)NC(=O)c2ccc(-n3ccc(OCC(C)(C)C(F)(F)F)n3)nc2N2C[C@@H](C)CC2(C)C)cnn1C [Compound 13, N-(1,5-dimethylpyrazol-4-yl)sulfonyl-6-[3-(3,3,3-trifluoro-2,2-dimethyl-propoxy)pyrazol-1-yl]-2-[(4S)-2,2,4-trimethylpyrrolidin-1-yl]pyridine-3-carboxamide] | – | 11.7 ×10⁻⁶ cm/s | 117% | 130 nM | 4% | 3 mL/min/kg | 65% | 13400 ng·h/mL
C[C@@H]1CN(c2nc(-n3ccc(OCC(C)(C)C)n3)ccc2C(=O)NS(=O)(=O)c2ccccc2)C(C)(C)C1 [C, reference compound] | – | 1.5 ×10⁻⁶ cm/s | 6% | 120 nM | 9% | 29.2 mL/min/kg | – | –

The next lines start with the values.

metabolite identity [1] | Papp A→B [2] | Hepatocyte clearance-Rat Rat hepatocytes CL pct_unchanged (Rat hepatocytes) | EC50 (F508del-CFTR) | CYP3A4 Induction-PXR human PXR internal Max % Activity (human PXR) | RAT PLASMA-RAW IV-bolus CL_drg (Rat IV and PO PK studies) | RAT PLASMA-RAW PO % F_drg (Rat IV and PO PK studies) | AUC(0-inf) (Rat IV and PO PK studies) | Compound
metabolites of Compound 1 | – | 39% | 460 nM | 1% | – | – | – | C[C@@H]1CN(c2nc(-n3ccc(OCC(C)(C)C(F)(F)F)n3)ccc2C(=O)NS(=O)(=O)c2cn(C)nc2CO)C(C)(C)C1 [Compound 39, N-[3-(hydroxymethyl)-1-methyl-pyrazol-4-yl]sulfonyl-6-[3-(3,3,3-trifluoro-2,2-dimethyl-propoxy)pyrazol-1-yl]-2-[(4S)-2,2,4-trimethylpyrrolidin-1-yl]pyridine-3-carboxamide]
– | 3 ×10⁻⁶ cm/s | 0% | 520 nM | 1% | 6.7 mL/min/kg | 47% | 3900 ng·h/mL | Cc1c(S(=O)(=O)NC(=O)c2ccc(-n3ccc(OCC4C(C)(C)C4(C)C)n3)nc2N2C[C@@H](C)CC2(C)C)cnn1C [Compound 21, N-(1,5-dimethylpyrazol-4-yl)sulfonyl-6-[3-[(2,2,3,3-tetramethylcyclopropyl)methoxy]pyrazol-1-yl]-2-[(4S)-2,2,4-trimethylpyrrolidin-1-yl]pyridine-3-carboxamide]
metabolites of Compound 1 | 1.2 ×10⁻⁶ cm/s | 49% | 560 nM | 9% | – | – | – | Cc1nn(C)cc1S(=O)(=O)NC(=O)c1ccc(-n2ccc(OCC(C)(CO)C(F)(F)F)n2)nc1N1C[C@@H](C)CC1(C)C (stereo partly drawn) [Compound 45, N-(1,3-dimethylpyrazol-4-yl)sulfonyl-6-[3-[3,3,3-trifluoro-2-(hydroxymethyl)-2-methyl-propoxy]pyrazol-1-yl]-2-[(4S)-2,2,4-trimethylpyrrolidin-1-yl]pyridine-3-carboxamide]
metabolites of Compound 1 | – | 35% | 30000 nM | 13% | – | – | – | C[C@H]1CC(C)(C)N2c3nc(-n4ccc(OCC(C)(C)C(F)(F)F)n4)ccc3C(=O)OC12 (stereo partly drawn) [Compound 57, (7S)-7,9,9-trimethyl-2-(3-(3,3,3-trifluoro-2,2-dimethylpropoxy)-1H-pyrazol-1-yl)-6a,7,8,9-tetrahydro-5H-pyrido[2,3-d]pyrrolo[2,1-b][1,3]oxazin-5-one]
– | 2.2 ×10⁻⁶ cm/s | 41% | 90 nM | 4% | 1.8 mL/min/kg | 80% | 7100 ng·h/mL | Cc1nn(C)cc1S(=O)(=O)NC(=O)c1ccc(-n2ccc(OCC3C4(CC4)C34CC4)n2)nc1N1C[C@@H](C)CC1(C)C [Compound 28, (S)—N-((1,3-Dimethyl-1H-pyrazol-4-yl)sulfonyl)-6-(3-(dispiro[2.0.2.1]heptan-7-ylmethoxy)-1H-pyrazol-1-yl)-2-(2,2,4-trimethylpyrrolidin-1-yl)nicotinamide]
metabolites of Compound 1 | 0.6 ×10⁻⁶ cm/s | 39% | 950 nM | 4% | – | – | – | Cc1nn(C)cc1S(=O)(=O)NC(=O)c1ccc(-n2ccc(OCC(C)(C)C(F)(F)F)n2)nc1N1CC(CO)CC1(C)C (stereo not shown) [Compound 30, N-(1,3-dimethylpyrazol-4-yl)sulfonyl-2-[4-(hydroxymethyl)-2,2-dimethyl-pyrrolidin-1-yl]-6-[3-(3,3,3-trifluoro-2,2-dimethyl-propoxy)pyrazol-1-yl]pyridine-3-carboxamide]

Source: patent US10793547B2, “Modulator of the cystic fibrosis transmembrane conductance regulator, pharmaceutical compositions, methods of treatment, and process for making the modulator” (Vertex Pharmaceuticals Incorporated, priority 2016, dated 2020)
